In ChEMBL document CHEMBL1201862, “PubChem BioAssay data set” (2004):
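Cultured in 96-well plates, cells were exposed to test compound for 48 hours across five concentrations. GI50: concentration for 50% inhibition of growth.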 Active and inactive are the calls of the source. Cut-off read from the data, not from the text of the source: active = GI50 up to about 1.1 µM and inactive = higher.

Key:
Assay in all cases: DTP human tumour cell line panel, 48 h
A498 = system: A498
A549 = system: A549
CAKI-1 = system: CAKI-1
CCRF-CEM = system: CCRF-CEM
COLO 205 = system: COLO 205
DLD-1 = system: DLD-1
DMS-114 = system: DMS-114
DMS-273 = system: DMS-273
EKVX = system: EKVX
HCC 2998 = system: HCC 2998
HCT-116 = system: HCT-116
HCT-15 = system: HCT-15
HL-60 = system: HL-60
HOP-18 = system: HOP-18
HOP-62 = system: HOP-62
HOP-92 = system: HOP-92
HT-29 = system: HT-29
IGROV-1 = system: IGROV-1
K562 = system: K562
KM-20L2 = system: KM-20L2
KM12 = system: KM12
LOX IMVI = system: LOX IMVI
M19-MEL = system: M19-MEL
MCF7 = system: MCF7
MOLT-4 = system: MOLT-4
Malme-3M = system: Malme-3M
NCI-H226 = system: NCI-H226
NCI-H23 = system: NCI-H23
NCI-H460 = system: NCI-H460
NCI-H522 = system: NCI-H522
NCI/ADR-RES = system: NCI/ADR-RES
OVCAR-3 = system: OVCAR-3
OVCAR-4 = system: OVCAR-4
OVCAR-5 = system: OVCAR-5
OVCAR-8 = system: OVCAR-8
RPMI-8226 = system: RPMI-8226
RXF 393 = system: RXF 393
SF-268 = system: SF-268
SF-295 = system: SF-295
SF-539 = system: SF-539
SK-MEL-28 = system: SK-MEL-28
SK-MEL-2 = system: SK-MEL-2
SK-MEL-5 = system: SK-MEL-5
SK-OV-3 = system: SK-OV-3
SN12C = system: SN12C
SNB-19 = system: SNB-19
SNB-75 = system: SNB-75
SNB-78 = system: SNB-78
SW-620 = system: SW-620
U-251 = system: U-251
UACC-257 = system: UACC-257
UACC-62 = system: UACC-62
UO-31 = system: UO-31
XF498 = system: XF498
786-0 = system: 786-0
ACHN = system: ACHN
LXFL 529 = system: LXFL 529
M14 = system: M14
SR = system: SR
TK-10 = system: TK-10

Measured: GI50

NC1CCCCC1.O=P(O)(O)C(CSc1ccccc1)P(=O)(O)O
> 100 µM: HCT-15
inactive: A498 > 100 µM | A549 > 100 µM | CAKI-1 > 100 µM | CCRF-CEM > 100 µM | COLO 205 > 100 µM | DLD-1 > 100 µM | DMS-114 > 100 µM | DMS-273 > 100 µM | EKVX > 100 µM | HCC 2998 > 100 µM | HCT-116 > 100 µM | HL-60 > 100 µM | HOP-18 > 100 µM | HOP-62 > 100 µM | HOP-92 > 100 µM | HT-29 > 100 µM | IGROV-1 > 100 µM | K562 > 100 µM | KM-20L2 > 100 µM | KM12 > 100 µM | LOX IMVI > 100 µM | M19-MEL > 100 µM | MCF7 > 100 µM | MOLT-4 > 100 µM | Malme-3M > 100 µM | NCI-H226 > 100 µM | NCI-H23 > 100 µM | NCI-H460 > 100 µM | NCI-H522 > 100 µM | NCI/ADR-RES > 100 µM | OVCAR-3 47.9 µM | OVCAR-4 > 100 µM | OVCAR-5 > 100 µM | OVCAR-8 > 100 µM | RPMI-8226 > 100 µM | RXF 393 > 100 µM | SF-268 > 100 µM | SF-295 > 100 µM | SF-539 > 100 µM | SK-MEL-28 > 100 µM | SK-MEL-2 > 100 µM | SK-MEL-5 > 100 µM | SK-OV-3 > 100 µM | SN12C > 100 µM | SNB-19 > 100 µM | SNB-75 > 100 µM | SNB-78 > 100 µM | SW-620 > 100 µM | U-251 > 100 µM | UACC-257 > 100 µM | UACC-62 > 100 µM | UO-31 > 100 µM | XF498 > 100 µM

COc1ccccc1NC(=O)/C(=C/c1ccccc1)C(C)=O
inactive: 786-0 35.1 µM | A549 38 µM | ACHN 41.5 µM | CAKI-1 35.1 µM | CCRF-CEM 29.6 µM | DLD-1 38.8 µM | DMS-114 40.3 µM | EKVX 45.4 µM | HCC 2998 36.1 µM | HCT-116 43.3 µM | HL-60 23.6 µM | HOP-18 > 100 µM | HOP-62 59.4 µM | HOP-92 45.3 µM | HT-29 32.3 µM | IGROV-1 53 µM | K562 27.6 µM | KM12 36.9 µM | LOX IMVI 37.2 µM | LXFL 529 43.9 µM | M14 25.2 µM | M19-MEL 65.2 µM | MOLT-4 30.1 µM | Malme-3M 27.7 µM | NCI-H226 37.1 µM | NCI-H23 19.1 µM | NCI-H460 37.2 µM | NCI-H522 25.5 µM | OVCAR-3 38.6 µM | OVCAR-4 64.4 µM | OVCAR-5 > 100 µM | OVCAR-8 37.4 µM | RPMI-8226 35.5 µM | RXF 393 20.7 µM | SF-268 38.4 µM | SF-295 27.5 µM | SF-539 23.6 µM | SK-MEL-28 62.4 µM | SK-MEL-2 38.5 µM | SK-MEL-5 22.7 µM | SK-OV-3 44.5 µM | SN12C 42.2 µM | SNB-19 47.3 µM | SNB-78 10.8 µM | SR 36.6 µM | SW-620 36.9 µM | TK-10 44.9 µM | U-251 4.47 µM | UACC-257 47 µM | UACC-62 32.9 µM | UO-31 56.8 µM | XF498 19.4 µM
37.2 µM: HCT-15

COc1ccc(C2COc3cc(O)c(O)cc3C2)cc1 (stereo not given)
inactive: A498 9.84 µM | A549 48.8 µM | CAKI-1 13.7 µM | CCRF-CEM 2.86 µM | COLO 205 10.6 µM | DLD-1 9.93 µM | DMS-273 33.3 µM | EKVX 14.1 µM | HCC 2998 21.4 µM | HCT-116 11.3 µM | HL-60 1.58 µM | HOP-18 29.9 µM | HOP-62 76.4 µM | HOP-92 11.6 µM | HT-29 40.7 µM | IGROV-1 16.7 µM | K562 9.08 µM | KM-20L2 76.2 µM | KM12 39.7 µM | LOX IMVI 32.3 µM | M19-MEL 15.1 µM | MCF7 37.2 µM | MOLT-4 6.58 µM | Malme-3M 15.3 µM | NCI-H226 39.6 µM | NCI-H23 17.7 µM | NCI-H460 24 µM | NCI-H522 4.84 µM | NCI/ADR-RES 11 µM | OVCAR-3 11.4 µM | OVCAR-4 12.1 µM | OVCAR-5 148 µM | OVCAR-8 13.3 µM | RPMI-8226 7.45 µM | RXF 393 6.87 µM | SF-268 14.8 µM | SF-295 37.6 µM | SF-539 30.1 µM | SK-MEL-28 10.7 µM | SK-MEL-2 54.6 µM | SK-MEL-5 24.4 µM | SK-OV-3 86.3 µM | SN12C 30.1 µM | SNB-19 24.8 µM | SNB-75 43.8 µM | SNB-78 38.3 µM | SW-620 9.06 µM | U-251 13.7 µM | UACC-257 27.4 µM | UACC-62 14.1 µM | UO-31 56.2 µM | XF498 7.28 µM
10.2 µM: HCT-15
